Key:
[1] = tested on: platelets; assay: Platelet toxicity; format: cell-based; conditions: up to 3 μM; data not shown
[2] = tested on: H146 cells; assay: MTS cell viability assay in H146 cells; format: cell-based, human
Method: (§1) Small cell lung cancer H146 cells were incubated either with 500 nM ABT-199 (Bcl-2 inhibitor) or 125 nM compound #55 or the combination of both for 72 h. The cell viability was measured using MTS assay. The combination indices (CI) were calculated using formula CI=AB/(A×B); where AB is the percent cell inhibition by the combination whereas A and B are the percent cell inhibition by individual agents. CI<1 indicates synergism, whereas CI<0.3 indicates strong synergism.

[3] = molecular target: T1, Mcl-1 (Homo sapiens, UniProt Q07820); assay: Western blot Mcl-1 levels in MOLT4 cells; format: cell-based; set-up: endogenous in cells; conditions: 16 h
Method: (§2) MOLT4 cells and human platelets were incubated with increasing concentrations of compound #55 for 16 h. The cells were harvested and lysed in RIPA lysis buffer supplemented with protease and phosphatase inhibitor cocktails. An equal amount of protein (20 μg/lane) was resolved on a pre-cast 4-20% SDS-PAGE gel. Proteins were subsequently transferred to NOVEX PVDF membranes by electrophoresis. The membranes were blocked in blocking buffer (5% non-fat dry milk in TBS-T), and incubated with primary antibodies (at optimized concentrations) overnight at 4° C. After three washings in TBS-T, the membranes were incubated with an appropriate HRP-conjugated secondary antibody for 1 h at room temperature. After extensive washing for three times, the proteins of interest were detected with ECL western blotting detection reagents and recorded with autoradiography (Pierce Biotech, Rockford, IL, USA). The primary antibodies for Bcl-xL (Cat #2762), Bcl-2 (Cat #2872), Mcl-1 (Cat #5453) and β-actin (Cat #4970) were purchased from Cell Signaling technology. The relative band intensity was measured using ImageJ software and normalized to b-actin. The DC50 (concentration with 50% degradation) was calculated using GraphPad Prism. […] Bcl-2 levels were not detected, whereas Mcl-1 was unaffected with compound #55 treatment in MOLT4 cells (FIGS. 1B and 1D). […]

[4] = molecular target: T2, Bcl-xL (Homo sapiens, UniProt Q07817); assay: Western blot Bcl-xL degradation assay in human platelets; format: cell-based; set-up: endogenous in cells; host or cells: MOLT4; conditions: 16 h
Method: (§3) MOLT4 cells and human platelets were incubated with increasing concentrations of compound #55 for 16 h. The cells were harvested and lysed in RIPA lysis buffer supplemented with protease and phosphatase inhibitor cocktails. An equal amount of protein (20 μg/lane) was resolved on a pre-cast 4-20% SDS-PAGE gel. Proteins were subsequently transferred to NOVEX PVDF membranes by electrophoresis. The membranes were blocked in blocking buffer (5% non-fat dry milk in TBS-T), and incubated with primary antibodies (at optimized concentrations) overnight at 4° C. After three washings in TBS-T, the membranes were incubated with an appropriate HRP-conjugated secondary antibody for 1 h at room temperature. After extensive washing for three times, the proteins of interest were detected with ECL western blotting detection reagents and recorded with autoradiography (Pierce Biotech, Rockford, IL, USA). The primary antibodies for Bcl-xL (Cat #2762), Bcl-2 (Cat #2872), Mcl-1 (Cat #5453) and β-actin (Cat #4970) were purchased from Cell Signaling technology. The relative band intensity was measured using ImageJ software and normalized to b-actin. The DC50 (concentration with 50% degradation) was calculated using GraphPad Prism. […] Bcl-2 levels were not detected, whereas Mcl-1 was unaffected with compound #55 treatment in MOLT4 cells (FIGS. 1B and 1D). […] The DC50 and Dmax values of compound #55 in platelets were >3 μM and 26%, respectively (FIG. 1E).

[5] = tested on: RS4; 11 cells; assay: MTS cell viability assay in RS4; 11 cells; format: cell-based, human
Method: (§6) Cell viability was measured by tetrazolium-based MTS assay and IC50 was calculated as a percentage of vehicle-treated cells.

[6] = tested on: H929 cells; assay: MTS cell viability assay in H929 cells; format: cell-based, human; conditions: Mcl-1-dependent H929 cells, 72 h
Method: as §6

[7] = molecular target: T3, Bcl-w (Homo sapiens, UniProt Q92843); assay: AlphaLISA competitive binding assay, Bcl-w; conditions: His-tagged Bcl-w, biotin-tagged BIM peptide, 24 h incubation
T3 construct: purchased Sigma-Aldrich
T3 sequence (Q92843 1-193): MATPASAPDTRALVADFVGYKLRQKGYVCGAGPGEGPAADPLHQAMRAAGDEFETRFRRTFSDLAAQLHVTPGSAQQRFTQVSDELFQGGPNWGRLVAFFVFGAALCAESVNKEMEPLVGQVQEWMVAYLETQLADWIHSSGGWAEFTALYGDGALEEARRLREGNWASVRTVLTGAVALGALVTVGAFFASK
Method: (§4) Purified recombinant His-tagged Bcl-xL/Bcl-2/Bcl-w (Sigma-Aldrich, St. Louis, MO) were incubated with increasing concentrations of compound #55 and a fixed concentration of biotin-tagged Bad (for Bcl-xL) or BIM peptides (for Bcl-2 and Bcl-w) (AnaSpec, Fremont, CA) to a final volume of 40 µL in 96-well PCR plate. After 24 h incubation, 5 μL 6×His-Acceptor beads (final concentration 20 μg/mL) (PerkinElmer, Houston, TX) were added to each well and incubated for 1 h. Thereafter, 5 μL streptavidin-donor beads were added (final concentration 20 μg/mL) (PerkinElmer) to each well and incubated for 0.5 h. At the end of the incubation period, 17 μL of each sample was transferred in adjacent wells of 384-well proxy plate. The plate was scanned using Alpha program on Biotek's Synergy Neo2 multi-mode plate reader. The inhibition constant (Ki) was calculated using non-linear regression, one site, competitive binding, Fit Ki function on GraphPad Prism based on experimentally determined Kd for each protein/peptide pair.

[8] = molecular target: T2, Bcl-xL; assay: Western blot Bcl-xL degradation assay in MOLT4 cells; format: cell-based; set-up: endogenous in cells; host or cells: MOLT4
Method: as §3
MOLT4 cells were incubated with a fixed concentration of compound #55 for increasing time points. In another experiment, cells were treated for 16 hours followed by drug withdrawal and further cultured for increasing time-points before harvesting them for Bcl-xL degradation assays. Bcl-xL levels were measured using Western blot analysis as described above. The relative band intensity was measured using ImageJ software and normalized to equal loading control β-actin.
Cell viability was measured by MTS assay.
Third, we sought to confirm that compound #55-induced Bcl-xL degradation depends on proteasomal activity.
Fourth, we sought to confirm that Bcl-xL degardation by compound #55 requires the binding with Bcl-xL protein.

[9] = tested on: caspase-3 and poly (ADP) ribose polymerase (PARP); assay: Western blot of cleaved caspase-3 and PARP in MOLT4 cells; format: cell-based, human; conditions: 0.1 and 0.3 μM, 24 h
Method: At the end of incubation, cells were harvested for western blot analysis of cleaved and full length caspase-3 and poly (ADP) ribose polymerase (PARP). The antibodies for cleaved caspase-3 (Cat #9661), full length caspase-3 (Cat #9662), and PARP (Cat #9532) were purchased from Cell Signaling Technology. A single Anti-PARP antibody used can detect both cleaved and full length PARP.

[10] = molecular target: T2, Bcl-xL; assay: AlphaLISA competitive binding assay, Bcl-xL; set-up: purchased Sigma-Aldrich; conditions: His-tagged Bcl-xL, biotin-tagged Bad peptide, 24 h incubation
Method: as §4

[11] = molecular target: T4, Bcl-2 (Homo sapiens, UniProt P10415); assay: Western blot Bcl-2 levels in additional cancer cells; format: cell-based; set-up: endogenous in cells; host or cells: RS4;11, EJM, H929, H146; conditions: RS4; 11, EJM, H929 (16 h), H146 (48 h); fixed concentration
Method: as §2, with “The primary antibodies for Bcl-xL (Cat #2762), Bcl-2 (Cat #2872), Mcl-1 (Cat #5453) and β-actin (Cat #4970) were purchased from Cell Signaling technology.” left out
(§5) Tumor cells were incubated with a fixed concentration of compound #55 for 16 h (RS4; 11, EJM, H929) or 48 h (H146) and Bcl-2/Bcl-xL/Mcl-1 levels were determined using Western blot analysis as described above.

[12] = molecular target: T2, Bcl-xL; assay: Western blot Bcl-XL degradation in additional cancer cells; format: cell-based; set-up: endogenous in cells; conditions: RS4; 11, EJM, H929 (16 h), H146 (48 h); fixed concentration
Method: as §2, with “The primary antibodies for Bcl-xL (Cat #2762), Bcl-2 (Cat #2872), Mcl-1 (Cat #5453) and β-actin (Cat #4970) were purchased from Cell Signaling technology.” left out
as §5

[13] = tested on: EJM cells; assay: MTS cell viability assay in EJM cells; format: cell-based, human
Method: as §1, with “Multiple Myeloma EJM” for “Small cell lung cancer H146”, “250” for “500”, “S63845 (Mcl-1” for “ABT-199 (Bcl-2”

[14] = molecular target: T4, Bcl-2; assay: AlphaLISA competitive binding assay, Bcl-2; set-up: purchased Sigma-Aldrich; conditions: His-tagged Bcl-2, biotin-tagged BIM peptide, 24 h incubation
Method: as §4

[15] = tested on: MOLT4 cells; assay: MTS cell viability assay in MOLT4 cells
Method: as §6

[16] = molecular target: T1, Mcl-1; assay: Western blot Mcl-1 levels in additional cancer cells; format: cell-based; set-up: endogenous in cells; host or cells: RS4;11, EJM, H929, H146; conditions: RS4; 11, EJM, H929 (16 h), H146 (48 h); fixed concentration
Method: as §2, with “The primary antibodies for Bcl-xL (Cat #2762), Bcl-2 (Cat #2872), Mcl-1 (Cat #5453) and β-actin (Cat #4970) were purchased from Cell Signaling technology.” left out
as §5

T2 sequence (Q07817 whole entry): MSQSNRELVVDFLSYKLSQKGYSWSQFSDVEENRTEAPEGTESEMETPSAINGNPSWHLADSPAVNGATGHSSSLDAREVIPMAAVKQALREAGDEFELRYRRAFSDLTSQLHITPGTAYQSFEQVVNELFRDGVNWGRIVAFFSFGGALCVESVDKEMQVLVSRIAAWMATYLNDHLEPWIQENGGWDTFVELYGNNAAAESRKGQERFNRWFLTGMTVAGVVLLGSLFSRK
T4 sequence (P10415 whole entry): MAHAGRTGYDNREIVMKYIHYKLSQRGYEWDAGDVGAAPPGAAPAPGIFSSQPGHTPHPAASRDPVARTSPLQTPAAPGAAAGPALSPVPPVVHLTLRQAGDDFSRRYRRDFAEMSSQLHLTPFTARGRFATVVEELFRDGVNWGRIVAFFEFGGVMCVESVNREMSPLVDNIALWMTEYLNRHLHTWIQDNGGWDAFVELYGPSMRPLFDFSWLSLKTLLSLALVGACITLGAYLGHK
T1 sequence (Q07820 whole entry): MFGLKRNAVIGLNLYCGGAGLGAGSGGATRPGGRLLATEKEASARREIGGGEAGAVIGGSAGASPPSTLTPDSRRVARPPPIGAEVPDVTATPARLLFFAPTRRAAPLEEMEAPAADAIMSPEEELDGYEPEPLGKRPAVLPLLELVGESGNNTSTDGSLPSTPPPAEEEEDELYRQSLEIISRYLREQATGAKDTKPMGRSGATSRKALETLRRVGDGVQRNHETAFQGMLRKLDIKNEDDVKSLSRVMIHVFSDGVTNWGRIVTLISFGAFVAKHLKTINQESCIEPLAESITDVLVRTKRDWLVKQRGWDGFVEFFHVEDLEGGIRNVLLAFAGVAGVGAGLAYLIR

“(2S,4R)-1-((S)-2-(7-(4-((R)-3-((4-(N-(4-(4-((4′- Chloro-4,4-dimethyl- 3,4,5,6-tetrahydro-[1,1′-biphenyl]-2- yl)methyl)piperazin-1-yl)benzoyl)sultamoyl)-2- ((trifluoromethyl)sulfonyl)phenyl)amino)-4- (phenylthio)butyl)piperazin-1-yl)-7- oxoheptanamido)-3,3-dimethylbutanoyl)-4-hydroxy- N-((S)-1-(4-(4-methylthiazol-5- yl)phenyl)ethyl)pyrrolidine-2-carboxamide [compound #55]” was tested, and the platelet toxicity [1] was “did not induce any significant platelet toxicity”, the IC50 ([2]; Bcl-2/Bcl-xL-dependent H146 cells, 72 h, MTS, read-out: IC50 loss of cell viability) was 160 nM and the “loss of cell viability in combination with ABT-199” value ([2]; H146 cells, 125 nM compound #55 + 500 nM ABT-199, 72 h, MTS) was “synergistically induce the loss of cell viability”. For the same compound, the “effect on cell viability compared with ABT-263” value ([2]; H146 cells, 72 h) was “less prominent than ABT-263”, the Mcl-1 levels [3] was “unaffected” and the Bcl-xL levels [4] was “did not affect Bcl-xL levels”. For the same compound, the DC50 [4] was greater than 3000 nM, the “Dmax of Bcl-xL” value [4] was 26% and the IC50 ([5]; Bcl-2-dependent RS4, 72 h, MTS, read-out: IC50 loss of cell viability) was 230 nM. The “effect on cell viability compared with ABT-263” value ([5]; RS4, 72 h) was “less prominent than ABT-263”, the cellular activity [6] was “did not show any significant cellular activity” and the Ki [7] was 301 nM. For the same compound, the “Bcl-xL degradation in ABT263-pretreated cells” value ([8]; 1 μM ABT-263 pretreatment, 0.1 and 1 μM, 16 h) was “did not induce Bcl-xL degradation”, the “Bcl-xL degradation in MG132-pretreated cells” value ([8]; 1 μM MG132 pretreatment, 0.1 and 1 μM, 6 h) was “did not induce Bcl-xL degradation” and the “Dmax (maximum degradation) of Bcl-xL” value ([8]; 16 h) was 90.8%. The DC50 ([8]; 16 h, read-out: DC50 (concentration with 50% degradation) of Bcl-xL) was 63 nM, the “Bcl-xL degradation in VHL-L-pretreated cells” value ([8]; VHL-L pretreatment, then 16 h) was “did not induce Bcl-xL degradation” and the “time at which significant Bcl-xL degradation starts” value ([8]; fixed concentration, increasing time points) was 2 h. The “Bcl-xL degrading activity after drug withdrawal” value ([8]; treated 16 hours then drug withdrawal) was “able to sustain its Bcl-xL degrading activity for prolonged period after drug withdrawal”, the “cleavage of caspase-3 and PARP” value [9] was “induced cleavage of caspase-3 and PARP” and the “cleavage of caspase-3 and PARP compared with ABT263” value [9] was “more pronounced than ABT263”. For the same compound, the Ki [10] was 12.8 nM, the “effect on Bcl-2 levels” value [11] was “sparing Bcl-2 and Mcl-1” and the Bcl-XL degradation [12] was “capable of degrading Bcl-XL in all these cell lines”. For the same compound, the “loss of cell viability in combination with S63845” value ([13]; EJM cells, 125 nM compound #55 + 250 nM S63845, 72 h) was “synergistically induce the loss of cell viability”, the cellular activity ([13]; Mcl-1-dependent EJM cells, 72 h) was “did not show any significant cellular activity” and the Ki [14] was 1.82 nM. The “cell killing in the presence of VHL-L” value ([15]; MOLT4 cells pretreated with 1 and 2 μM VHL-L for 1 h, then 72 h) was “abrogated”, the IC50 ([15]; read-out: IC50 cell viability, Bcl-XL-dependent MOLT4 cells, 72 h, MTS) was 52 nM and the “effect on Mcl-1 levels” value [16] was “sparing Bcl-2 and Mcl-1”.

For `CC1(C)CCC(c2ccc(Cl)cc2)=C(CN2CCN(c3ccc(C(=O)NS(=O)(=O)c4ccc(N[C@H](CCN5CCOCC5)CSc5ccccc5)c(S(=O)(=O)C(F)(F)F)c4)cc3)CC2)C1` [ABT-263, navitoclax, reference compound], the Ki [7] was 33.5 nM and the “cell killing in the presence of VHL-L” value ([15]; MOLT4 cells, with 1 μM and 2 μM VHL-L, 72 h) was “could not further induce the cell killing in the presence of VHL-L”.

— patent US12118414B2, “BCL-2 proteins degraders for cancer treatment” (BioVentures, LLC, priority 2018, dated 2024)
